From patent US20230399661A1, “SHUTTLE AGENT PEPTIDES OF MINIMAL LENGTH AND VARIANTS THEREOF ADAPTED FOR TRANSDUCTION OF CAS9-RNP AND OTHER NUCLEOPROTEIN CARGOS” (priority 2020, published 2023)

Assays:
Type in all cases: cell-based, Human
HeLa cells [1] = test: GFP-NLS transduction in presence of Cas9-RNP complex coated with small molecules; settings: shuttle agent FSD250, up to 10 mM of the small molecule
Description: HeLa cells were plated (20 000 cells/well) in a 96 well-plate the day prior to the experiment in DMEM containing 10% FBS. The Cas9-RNP complex coated with small molecules was prepared by mixing a Cas9-NLS recombinant protein (5 μM) complexed with a crRNA/tracrRNA (4 μM) targeting the beta-2 microglobulin (B2M) gene with 0, 100 nM, 1 μM, 10 μM, 100 μM, 1 mM or 10 mM of either 1,3-diaminoguanidine monohydrochloride, 3,5-diamino-1,2,4-triazole, guanidine hydrochloride or L-arginine amide dihydrochloride. The Cas9 RNP complex coated with small molecules was completed to […] with PBS. The delivery mix was prepared by mixing a synthetic peptide shuttle agent (10 μM), the GFP-NLS (10 μM) with or without the Cas9 RNP complex coated or not with small molecules and completed to 50 μL with phosphate-buffered saline PBS. […] Cells were then analyzed by flow cytometry.
Hypothesizing that the inhibitory effect of the sgRNA was due to the negatively charged phosphate backbone of the RNA, we attempted to neutralize the negative charges by coating the Cas9-RNP complexes with small positively charged molecules prior to transduction. Delivery of GFP in HeLa cells in the presence of Cas9-RNP was assessed in the presence of small positively charged molecules such as 1,3-diaminoguanidine monohydrochloride; 3,5-diamino-1,2,4-triazole; guanidine hydrochloride; or L-arginine amide dihydrochloride.

HeLa cells [2] = test: GFP-NLS transduction in the presence or absence of Cas9-RNP complex, flow cytometry; design: GFP transduction efficiency: concentration or dose not given beside the values; settings: for resistance/sensitivity of GFP transduction to inhibition by Cas9-RNP: presence vs absence of Cas9-RNP
Description: (§1) HeLa cells were plated (20 000 cells/well) in a 96 well-plate the day prior to the experiment in DMEM containing 10% FBS. A mix was prepared containing a synthetic peptide shuttle agent (10-30 μM), the GFP-NLS (10 μM) with or without a Cas9-NLS recombinant protein (2.5 μM) complexed with a crRNA/tracrRNA (2 μM) targeting the beta-2 microglobulin (B2M) gene and completed to 50 μL with PBS. Cells were washed once with PBS and the shuttle/GFP-NLS/Cas9-RNP mix was added to the cells and incubated for one minute. Then 100 μL DMEM containing 10% FBS was added to the mix. Cells were then immediately washed once with PBS and incubated in DMEM containing 10% FBS for two hours. Cells were the analyzed by flow cytometry.
To better understand the inhibitory effect of Cas9-RNP on shuttle agent transduction activity, HeLa cells were incubated with different peptides/shuttle agents and GFP cargo, in the presence or absence of Cas9-RNP, and delivery of GFP was assessed by flow cytometry, as described in Example 1. […] For some shuttle agents, the effect was particularly striking. For example, the GFP transduction efficiency for FSD268 decreased from 92% to 29%, the GFP transduction efficiency for FSD250 decreased from 83% to 13%, the GFP transduction efficiency for FSD10 decreased from 76% to 22%, and the GFP transduction efficiency for FSD395 decreased from 91% to 17%. […] Structure-activity relationships were explored further by repeating the above transduction experiments with shuttle agent variants sharing the same “core” amphipathic cationic alpha helical region as FSD10-15 (FIG. 4A), CM18 (FIG. 4B), and FSD356 (FIG. 4C).

HeLa cells [3] = test: GFP or PI delivery by short/truncated shuttle agents, flow cytometry; settings: GFP or PI cargo
Description: HeLa cells were plated (20 000 cells/well) in a 96 well-plate the day prior to the experiment in DMEM containing 10% FBS. Each delivery mix comprising a synthetic peptide shuttle agent (10-30 μM) and GFP-NLS (10 μM) was prepared and completed to 50 μL with RPMI 1640 media. Cells were washed once with phosphate-buffered saline (PBS) and the shuttle/GFP-NLS mix was added to the cells and incubated for five minutes. Then 100 μL DMEM containing 10% FBS was added to the mix. Cells were then immediately washed once with PBS and incubated in DMEM containing 10% FBS for two hours. Cells were then analyzed by flow cytometry.
HeLa cells were plated (20 000 cells/well) in a 96 well-plate the day prior to the experiment in DMEM containing 10% FBS. […] Cells were then analyzed by flow cytometry.
To test the transduction activity of short/truncated synthetic shuttle agents (e.g., generally having less than 20 amino acids), HeLa cells were incubated with control peptides and N-terminal shuttle agent fragments of different lengths and delivery of GFP or PI was assessed by flow cytometry as described in Example 1. […] The Overall Delivery Factor represents a single number that accounts for the toxicity of each shuttle agent/peptide, as well as its ability to deliver GFP and PI, and was calculated as follows: […]

CFF-16HBEge cells [4] = test: ABE-Cas9-RNP delivery, base editing evaluated by next-generation sequencing; settings: NGS; for base editing (ABE-Cas9-RNP): compared to non-treated cells
Description: (§2) For Cas9-RNP or ABE-Cas9-RNP transduction, a mix of Cas9-NLS or ABE-Cas9 recombinant protein (2.5 μM) complexed with a crRNA/tracrRNA (2 μM) targeting the beta-2 microglobulin (B2M) gene were co-incubated with 10-20 μM of synthetic peptide shuttle agent in a final volume of 50 μL completed with PBS. Cells were washed once with PBS and the shuttle/Cas9-RNP complex was added to the cells for and incubated for 60 to 90 seconds. Then 100 μL of DMEM (HeLa) or Alpha-MEM (CFF-16HBEge) containing 10% FBS was added to the mix. Cells were then immediately washed once with PBS and incubated in DMEM (HeLa) or Alpha-MEM (CFF-16HBEge) containing 10% FBS.
(§3) Further transduction experiments in CFF-16HBEge cells were performed to compare the ability of shuttle agents to deliver functional Cas9-RNP genome editing versus ABE-Cas9-RNP base editing complexes. Variants of the shuttle agent FSD10 (FIG. 8A) were tested in parallel, and genome editing/base editing results as evaluated by next-generation sequencing (NGS) are shown in FIGS. 8B and 8C for Cas9-RNP and ABE-Cas9-RNP, respectively.

CFF-16HBEge cells [5] = test: Cas9-RNP delivery, B2M genome editing; settings: for genome editing (Cas9-RNP): NGS, compared to non-treated cells; for genome editing with Cas9-RNP as cargo: B2M knockout, versus non-treated negative control
Description: HeLa cells were plated (10 000 cells/well) in a 96 well-plate the day prior to the experiment in DMEM containing 10% FBS. CFF-16HBEge cells were plated (10 000 cells/well) in a 96 well-plate the day prior to the experiment in Alpha-MEM containing 10% FBS.
as §2
Genome editing events resulting in the absence of B2M protein (knockout) at the cell surface were determined by flow cytometry 6 days post-transduction. Cells were washed once with PBS and incubated with the anti-B2 microglobulin antibody (PE conjugated) (0.5 μL of anti-B2M-PE in […] 0.5% BSA/PBS) for 45 minutes at room temperature. Cells were washed twice with PBS and detached with 50 µL of Trypsin-EDTA for 10 minutes at 37° C. then inactivated by adding 100 μL of media containing 10% FBS. The percentage of knockout cells (cells without B2M antibody signal) was determined by flow cytometry.
A similar genome editing experiment as in Example 6 was performed in the Human Bronchial Epithelial cell line model of cystic fibrosis, CFF-16HBEge.
as §3

RH-30 cells = test: PMO-FITC transduction in the presence of sgRNA spiked in the medium, flow cytometry; settings: 5 μM shuttle agent, 6 μM PMO-FITC, 2 μg of sgRNA (4 μg/mL)
Source text: Nuclear delivery of Cas9-sgRNA complexes (hereinafter Cas9-RNP) via first- and second-generation synthetic peptide shuttle agents generally occurs less efficiently than delivery of a Cas9 proteinaceous cargo alone (i.e., without its corresponding sgRNA; see Krishnamurthy et al., 2019, supplementary FIG. 6). The negative effect of the sgRNA (without Cas9) on shuttle agent-mediated transduction of a fluorescently-labelled charge-neutral polynucleotide analog cargo (phosphorodiamidate morpholino oligomer (PMO)) is also shown in FIG. 2A. Briefly, RH-30 cells (150,000 cells/well in 24-well dish) were contacted with a delivery mix containing 6 μM of PMO-FITC and 5 μM of the synthetic peptide shuttle agent FSD250 for 2 minutes in RPMI, in the presence of increasing amounts of sgRNA spiked in the medium. Cells were then washed, incubated in complete medium and then collected for analysis by flow cytometry after 1 h.

CFF-16HBEge cells [6] = test: GFP transduction in the presence or absence of Cas9-RNP in CFF-16HBEge cells
Description: as §1
The above transduction experiments were repeated with FSD10 and FSD375 in a Human Bronchial Epithelial cell line model of cystic fibrosis, CFF-16HBEge.

Row | Compound | GFP transduction efficiency (HeLa cells [2]; absence of Cas9-RNP) [%] | GFP transduction efficiency (HeLa cells [2]; presence of Cas9-RNP) [%] | resistance/sensitivity of GFP transduction to inhibition by Cas9-RNP (HeLa cells [2]) | genome editing with Cas9-RNP as cargo (CFF-16HBEge cells [5]) | other results
1 | Cl.N=C(NN)NN [1,3-diaminoguanidine monohydrochloride] | – | – | – | – | GFP transduction activity and Mean GFP delivery Scores in presence of Cas9-RNP coated with charge-neutralizing agent (HeLa cells [1]): significantly inhibited
2 | CM18: CM series peptide, 18 amino acids long; endosome leakage domain in some first generation shuttle agents (KWKLFKKIGAVLKVLTTG; CM18) [reference compound] | 32 | 28 | more resistant | – | GFP delivery score (HeLa cells [2]; FIGS. 3 and 4B, presence or absence of Cas9-RNP not stated): 1.8; transduction activity (HeLa cells [3]): transduction activity was observed
3 | FSD10-Cter: negative control peptide consisting of the C-terminal cationic portion of FSD10 alone (YARALRRQARTG; FSD10-Cter) | – | – | – | – | base editing (ABE-Cas9-RNP) (CFF-16HBEge cells [4]): did not exhibit any detectable genome editing or base editing; genome editing (Cas9-RNP) (CFF-16HBEge cells [5]): did not exhibit any detectable genome editing
4 | FSD10: synthetic peptide shuttle agent; FSD10-15 core, glycine/serine-rich linker and second cationic domain (KWKLARAFARAIKKLGGSGGGSYARALRRQARTG; FSD10) | 76 | 22 | more sensitive to inhibition by Cas9-RNP | failed to show any increase in genome editing | –
5 | FSD250: synthetic peptide shuttle agent; FSD446 with C-terminal segment replaced with a cationic segment (KWKLLKLWSRLLKLWGGSGGGSARAARQAR; FSD250) | 83 | 13 | – | – | cargo transduction efficiency (PMO-FITC) (RH-30 cells): reduced cargo transduction efficiency
6 | FSD374: core amphipathic cationic domain (as FSD174) flanked by short segments of non-cationic hydrophilic residues (GGSGGGSLLKIWSRLIKIWTQGRRLGGSGGGS; FSD374) | – | – | virtually the same GFP transduction efficiency in the presence or absence of Cas9-RNP | significant genome editing | –
7 | FSD375: FSD10-15 with flanking glycine/serine-rich residues (GGSGGGSKWKLARAFARAIKKLGGSGGGS; FSD375) | – | – | retained the peptide's resistance to Cas9-RNP | significant genome editing | resistance to Cas9-RNP inhibition of GFP transduction (CFF-16HBEge cells [6]): greater resistance to Cas9-RNP inhibition than FSD10; GFP transduction activity relative to FSD10-15 (HeLa cells [2]; FIG. 4A): improving GFP transduction activity over FSD10-15; base editing efficiency (ABE-Cas9-RNP) (CFF-16HBEge cells [4]): about 15%
8 | FSD395: synthetic peptide shuttle agent (KLKLLKLLLKLLKKLGGSGGGSQAKAQAKQAK; FSD395) | 91 | 17 | – | failed to show any increase in genome editing | –
9 | Linker-(FSD10-Cter)-Linker: negative control peptide: C-terminal cationic portion of FSD10 flanked by glycine/serine-rich linkers (GGSGGGSYARALRRQARTGGGSGGGS; Linker-(FSD10-Cter)-Linker) | – | – | – | – | base editing (ABE-Cas9-RNP) (CFF-16HBEge cells [4]): did not exhibit any detectable genome editing or base editing; genome editing (Cas9-RNP) (CFF-16HBEge cells [5]): did not exhibit any detectable genome editing
